Read-outs that look alike come from different tables or passages of the source.
Experiments:
Calf brain tubulin = assay: Microtubule assembly and disassembly assay; assay type: biochemical; settings: percentage of repolymerisation induced after CaCl2 depolymerisation
Experimental: Calf brain tubulin was prepared by two cycles of assembly-disassembly (Shelanski M. L. Gaskin F. and Cantor C. R., Proc. Natl. Acad. Sci. U.S.A. 70, 765-768, 1973) and stored in liquid nitrogen in MAB (0.1M MES, 2.5 mM EGTA, 0.5 mM MgSO4, 0.1 mM EDTA, 0.1 mM DTT pH 6.4).
All the experiments were carried out on protein stored for less than 4 weeks.
Before each experiment, the tubulin was kept 30 min at 4° C.
Assembly was monitored by the method of Gaskin et al (Gaskin F., Cantor C. R. Shelanski M. L. J. Molec. Biol 89, 737-758, 1974). The cuvette (1 cm path) containing tubulin (1 mg/ml) and 1 mM GTP was shifted to 37° C. and continous turbidity measurements were made at 340 nm on Perkin-Elmer 557 Double Wavelength Double Beam Spectrophotometer equipped with an automatic recorder and a termostatically regulated sample chamber.
After 30 minutes 4 mM CaCl2 was added and depolymerisation was measured for 10 minutes as decreased turbidity. At regular intervals of 15 minutes scalar doses of the tested compounds were added and variations in the turbidity were monitored. Data are espressed as percentage of ripolymerisation induced by the tested compounds.

[1] = system: B16-F10 murine melanoma cells; assay: In vitro drug sensitivity assay; assay type: cell-based; settings: 72 hrs incubation, cell counting, read-out: IC50 (dose causing 50% inhibition cell growth)
Experimental: Exponentially growing B16-F10 murine melanoma cells were seeded (2×10^4 /ml) in RPMI 1640 medium were supplemented with 10% heat-inactivated fetal calf serum and 2 mM glutamine in 24 well-plates (Costar). Scalar concentrations of tested compounds were added immediately after seeding. The inhibition of cell growth was evaluated by counting cells with a coulter counter after 72 hrs incubation. For each tested compound concentration triplicate cultures were used. The antiproliferative activity of the tested compounds was calculated from dose-response curves and espressed as IC50 (dose causing 50% inhibition cell growth in treated cultures relative to untreated controls).

B16 F10 murine melanoma = assay: In vivo antitumor activity against B16 F10 murine melanoma; set-up: species or system C57B16 female mice
Experimental: The copolymer-paclitaxel prepared in Example 6 was tested in vivo against B16 F10 murine melanoma in comparison with paclitaxel.
C57B16 female mice were obtained from Charles River Italy.
Animals were 8 to 10 weeks old at the beginning of the experiment.
The murine melanoma B16F10 was used. A suspension of 10^5 tumor cells in 0.2 ml was injected subcutaneously in the flank of mice.
Tumor size was measured with caliper and tumor weight was calculated with the formula: [formula]
(§1) The compound of example 6 was injected intravenously. Both compounds were administered at day 1, 5, 9 after tumor implantation.
The dose of the polymer-conjugate is referred to the paclitaxel content.

[2] = TOX determination in tumor-bearing mice; assay type: in vivo, C57B16 female mice; settings: day 1, 5, 9
Experimental: as §1
TOX: number of mice which died for toxicity.
TOX determination was made when mice died before the control or when significant body weight loss and/or spleen and or/or liver size reduction were observed.

| Molecule | Tubulin Assembly % (Calf brain tubulin; 0.5 μM) | Tubulin Assembly % (Calf brain tubulin; 5 μM) | IC50 [1] | IC50 ([1]; Mus musculus) | other results |
| --- | --- | --- | --- | --- | --- |
| Copolymer of 1-methacryloylamino-2-hydroxypropane,1-(methacryloyl-glycyl-phenylanyl-leucyl-glycyl)amino-2hydroxypropane and 2(methacryloyl-glycyl-phenylalanyl-leucyl-glycyl-βalanyl)paclitaxel [Example 6] | 0% | 10% | 51 µM |  | Tumor Inhibition (%) (B16 F10 murine melanoma; 14.6 mg/Kg (paclitaxel content) intravenously, day 1, 5, 9): 77%; Tumor Inhibition (%) (B16 F10 murine melanoma; 22 mg/Kg (paclitaxel content) intravenously, day 1, 5, 9): 79%; Tox: number of mice which died for toxicity ([2]; 14.6 mg/Kg (paclitaxel content) intravenously): 0/9; Tox: number of mice which died for toxicity ([2]; 22 mg/Kg (paclitaxel content) intravenously): 0/10; Dissolution in glucose 5% (glucose 5%): easily dissolved; Time the resulting solution was clear (solution in glucose 5%): more than 2 hours |
| CC(=O)OC1C(=O)C2(C)C(OC(=O)CCN)CC3OCC3(OC(C)=O)C2C(OC(=O)c2ccccc2)C2(O)CC(OC(=O)C(O)C(NC(=O)c3ccccc3)c3ccccc3)C(C)=C1C2(C)C (stereo not shown) [Example 9, 7-(βalanyl)paclitaxel] | 79% | 145% |  | 47 µM |  |
| CC(=O)O[C@H]1C(=O)[C@@]2(C)[C@H]([C@H](OC(=O)c3ccccc3)[C@]3(O)C[C@H](OC(=O)[C@H](O)[C@@H](NC(=O)c4ccccc4)c4ccccc4)C(C)=C1C3(C)C)[C@]1(OC(C)=O)CO[C@@H]1C[C@@H]2O [Paclitaxel] | 41% | 96% |  | 39 µM | Tumor Inhibition (%) (B16 F10 murine melanoma; 14.6 mg/Kg intraperitoneally, day 1, 5, 9 after tumor implantation): 53%; Tumor Inhibition (%) (B16 F10 murine melanoma; 22 mg/Kg intraperitoneally, day 1, 5, 9): 38%; Tumor Inhibition (%) (B16 F10 murine melanoma; 33 mg/Kg intraperitoneally, day 1, 5, 9): 92%; Tox: number of mice which died for toxicity ([2]; 14.6 mg/Kg intraperitoneally): 0/10; Tox: number of mice which died for toxicity ([2]; 22 mg/Kg intraperitoneally): 0/10; Tox: number of mice which died for toxicity ([2]; 33 mg/Kg intraperitoneally): 1/7; Appearance of the solution (Cremophor EL 50% and ethanol 50%, diluted with glucose 5% solution): slightly hazy and precipitates formation was observed after short time |
| CC(=O)OC1C(=O)C2(C)C(O)CC3OCC3(OC(C)=O)C2C(OC(=O)c2ccccc2)C2(O)CC(OC(=O)C(OC(=O)CNC(=O)C(CC(C)C)NC(=O)C(N)Cc3ccccc3)C(NC(=O)c3ccccc3)c3ccccc3)C(C)=C1C2(C)C (stereo not shown) [Example 3, 2'(phenylalanyl-leucyl-glycyl)paclitaxel] | 46% | 86% |  | 23 µM |  |
| Copolymer of 1-methacryloylamino-2-hydroxypropane, 1-(methacryloyl-glycyl)amino-2-hydroxypropane and 2'(methacryloyl-glycyl-phenylalanyl-leucyl-glycyl)paclitaxel [Example 4] | 0% | 10% | 11 µM |  |  |
| Copolymer of 1-methacryloylamino-2-hydroxypropane, 1 (methacryloyl-glycyl-phenylalanyl-leucyl-glycyl)amino-2-hydroxypropane and 2'(methacryloyl-glycyl-phenylalanyl-leucyl-glycyl)paclitaxel [Example 1] | 0% | 15% | 19 µM |  |  |
